Laboratory results from US7056693B2 (priority 1998, dated 2006).

Tested on: National Cancer Institute's 60 cell line
Format: cell-based

## 2-(2′-amino-3′-methoxyphenyl)-oxanaphthalen-4-one [PDO9859]
  Activity profile in the 60 cell line database compared with LF: activity profile that is similar to LF
